As a reminder, the MIC90 is an inhibitory concentration at the 90% level, which refers to growth in some studies and to a panel of isolates in others. For orientation: MIC means the lowest concentration that inhibits growth of the organism.

Data set [1] relates to genotypically distinct C. difficile (n = 33). In words: Agar incorporation MIC. In kind it is cell-based. The following applies: for MIC range / MIC90: AI; for MIC90 / MIC: Clostridioides difficile. The text has this:
Thirty-three genotypically distinct (by PCR ribotyping) C. difficile isolates were selected from a library of strains at the Leeds General Infirmary (Leeds, UK). Representative isolates of epidemic C. difficile PCR ribotypes 001, 106 and 027 were included in the panel. Control isolates of Staphylococcus aureus ATCC 29213, Enterococcus faecalis ATCC 29212 and Bacteroides fragilis ATCC 25285 were included in all MIC determinations to ensure procedure accuracy.
Agar incorporation MICs were determined based on the method of Freeman and Wilcox (J Antimicrob Chemother 2001; 47: 244-6). Briefly, bacteria were cultured in Schaedler's anaerobic broth (Oxoid, Basingstoke, UK) at 37° C. for 24 h in an anaerobic cabinet (Don Whitley Scientific, Shipley). […] Oritavancin was prepared in 0.002% P80. All antimicrobial solutions were sterilized by filtration through 0.22 um syringe filters. […] Wilkins Chalgren agar (Oxoid) incorporating doubling dilutions of antimicrobial agents (0.03-16 mg/L) was prepared with and without 0.002% P80 and with and without 2% lysed horse blood (E&O Labs, Bonneybridge, UK). All media and diluents were pre-reduced overnight in the anaerobic cabinet. Bacterial cultures were diluted in sterile saline and inoculated onto the surface of agar incorporation agar plates using a multipoint inoculator (˜10^4 cfu). Agar incorporation plates were incubated anaerobically for 48 h. MIC endpoints were read as the lowest concentration of antimicrobial agent where there is no apparent growth (disregarding a visible haze of growth or a single colony).

Data set [2] deals with C. difficile PCR ribotype 027. In words: In vitro triple-stage chemostat human gut model of clindamycin-induced CDI. The following applies: for Decline of cytotoxin titres during instillation: 7 days; for Recrudescence of C. difficile spore germination, proliferation and cytotoxin production: after concentrations declined below limits of detection. From the text:
A single isolate of C. difficile PCR ribotype 027 was investigated. This isolate was a clinical strain recovered during an epidemic of CDI at the Maine Medical Centre (Portland, USA) in 2005. It was supplied courtesy of Dr. Rob Owens and ribotyped at the Anaerobe Reference Laboratory (Cardiff, Wales, UK) by Dr Jon Brazier.
(§1) The gut model was designed to allow the study of the intestinal microflora in the low pH, carbohydrate-excess conditions of the proximal colon and the carbohydrate-depleted, non-acidic conditions of the distal colon (Macfarlane et al., Microb Ecol 1998; 35: 180-7). Microbiological and physicochemical measurements within the gut model vessels were validated against the intestinal contents of sudden death victims (Macfarlane et al., Microb Ecol 1998; 35: 180-7). Each gut model consists of three fermentation vessels connected in a weir cascade system top-fed with growth medium at a controlled rate (D=0.015 h^−1). Vessels were sparged with oxygen-free nitrogen to ensure anaerobiosis, heated via a water-jacketed system (37° C.) and maintained at specific pH using fermenter controller units (Biosolo 3, Brighton Systems, UK) delivering 0.5 M HCl/NaOH. Vessel 1 (280 mL) was operated at pH 5.5 and high substrate availability, thus reflecting the conditions within the proximal colon, while vessels 2 and 3 (300 mL) were operated at pH 6.2 and 6.8, respectively, with low substrate availability, thus reflecting the conditions within the distal colon. The gut model was primed with faecal slurry ˜10% (w/v) and allowed to equilibrate with respect to bacterial populations for 14 days.
(§2) Faecal samples were collected from five healthy elderly (>65 years) volunteers and immediately transported to the laboratory under anaerobic conditions (GasPak, Oxoid, Basingstoke, UK). […] C. difficile-negative faeces were pooled and a coarse-filtered slurry (˜10% w/v) in sterile pre-reduced phosphate-buffered saline was prepared. Vessels of the gut models were filled to approximately two-thirds volume, and the growth medium pumps were started.
(§3) Major culturable components of the indigenous gut microflora and C. difficile were enumerated by viable counting (log10 cfu/mL) on selective and non-selective agars as reported previously (Freeman et al., J Antimicrob Chemother 2005; 56: 717-25). Bacterial groups enumerated were: total facultative anaerobes, facultatively anaerobic lactose fermenters, total anaerobes, bifidobacteria, Bacteroides fragilis group, total clostridia, lactobacilli, enterococci, total C. difficile and C. difficile spores. C. difficile cytotoxin production was quantified using a Vero cell cytotoxicity assay as described previously (Freeman et al., J Antimicrob Chemother 2003; 52: 96-102). Cytotoxin titres were expressed in log10 relative units (RU). Only C. difficile total bacterial counts, spore counts and cytotoxin titres were enumerated in vessel 1 of the gut model.
(§4) The use of the gut model to evaluate therapeutic interventions for CDI has been described previously (Freeman et al., J Antimicrob Chemother 2007; 60: 83-91; Freeman et al., J Antimicrob Chemother 2005; 56: 717-25). Briefly, following inoculation of each gut model with the faecal slurry, no further interventions were made for 13 days (period A). During period A, bacterial populations were enumerated every 2 days. Next (day 14), vessel 1 of each gut model was inoculated with a single inoculum of ˜10^7 cfu C. difficile PCR ribotype 027 spores (Freeman et al., J Antimicrob Chemother 2003; 52: 96-102), with no further interventions for 7 days (period B). From this point onwards, bacterial populations were enumerated daily.

The subject of data set [3] is indigenous gut microflora. In words: In vitro human gut model: indigenous gut microflora counts. In kind it is cell-based. The following applies: for Decline in Bacteroides populations / Decline in enterococcal populations: following instillation, period E, vessel 3.
From the text: as §1, §2, §3, §4

Setting [4] is: read-out: GEO MIC, AI, P80 no LHB.
The mark [5] stands for this setting: read-out: GEO MIC, AI, P80 with LHB.
[6] abbreviates: read-out: GEO MIC, AI, no P80 no LHB.
Where [7] appears, read: read-out: GEO MIC, AI, no P80 with LHB.
The mark [8] stands for this setting: day 2 of instillation (64 mg/L two times daily), vessel 3.

SMILES strings stand for the structures. Values after ≈ are worked out from the molar mass of the structure shown. Read-outs that look alike come from different tables or passages of the source.

As to `CN[C@H](CC(C)C)C(=O)N[C@H]1C(=O)N[C@@H](CC(N)=O)C(=O)N[C@H]2C(=O)N[C@H]3C(=O)N[C@H](C(=O)N[C@H](C(=O)O)c4cc(O)cc(O)c4-c4cc3ccc4O)[C@H](O[C@H]3C[C@](C)(N)[C@@H](O)[C@H](C)O3)c3ccc(c(Cl)c3)Oc3cc2cc(c3O[C@@H]2O[C@H](CO)[C@@H](O)[C@H](O)[C@H]2O[C@H]2C[C@](C)(NCc3ccc(-c4ccc(Cl)cc4)cc3)[C@@H](O)[C@H](C)O2)Oc2ccc(cc2Cl)[C@H]1O` [oritavancin, N-(4-(4-chlorophenyl)benzyl)A82846B], the MIC range in data set [1] (P80 no LHB) was 2 to 4 mg/L; in data set [1] (P80 with LHB), 1 to 4 mg/L; in data set [1] (no P80 no LHB), 2 to 4 mg/L; in data set [1] (no P80 with LHB), 0.5 to 4 mg/L. Also, the MIC90 in data set [1] (P80 no LHB) worked out at 4 µg/mL (≈ 2.23 µM); in data set [1] (P80 with LHB), 4 µg/mL (≈ 2.23 µM); in data set [1] (no P80 no LHB) it was 4 µg/mL (≈ 2.23 µM); in data set [1] (no P80 with LHB), 2 µg/mL (≈ 1.12 µM). Also, the MIC worked out at 2.7 µg/mL (≈ 1.51 µM) in data set [1] (setting [4]), 1.58 µg/mL (≈ 0.881 µM) in data set [1] (setting [5]), 2.33 µg/mL (≈ 1.3 µM) in data set [1] (setting [6]) and 1.72 µg/mL (≈ 0.959 µM) in data set [1] (setting [7]). The “Longer time for cytotoxin titres to decline to undetectable levels than in vancomycin experiment” value in data set [2] is 5 days. Also, the “C. difficile total counts and spore counts” value in data set [2] (1 day later (day 3 of instillation) and rest of period E, LOD ~1.22 log10 cfu/mL) is recorded as “below the limits of detection”. In addition, in data set [2] (after cessation of instillation, period F), the “Time to cytotoxin titres below the limits of detection” value was at most 10 days. Moreover, the “Decline of C. difficile spore counts” value in data set [2] (setting [8]) was about 2 log10 cfu/mL. Further, the “Decline of C. difficile total counts” value in data set [2] (setting [8]) was about 2 log10 cfu/mL. For the same compound, in data set [2] (period E), the “Decline of cytotoxin titres during instillation” value was found to be 3 RU. For the same compound, the “Recrudescence of C. difficile spore germination, proliferation and cytotoxin production” value in data set [2] (period F) is recorded as “No recrudescence”. Moreover, the “C. difficile isolation after cessation of instillation” value in data set [2] (period F, remainder of the experiment) is listed as “isolated sporadically at the limits of detection”. The “Decline in Bacteroides populations” value in data set [3] is about 1 log10 cfu/mL. Also, in data set [3], the “Decline in enterococcal populations” value is about 2 log10 cfu/mL. Further, in data set [3] (period F), the “Bifidobacteria after cessation of instillation” value is “remained below the limits of detection”.

With `CN[C@H](CC(C)C)C(=O)N[C@H]1C(=O)N[C@@H](CC(N)=O)C(=O)N[C@H]2C(=O)N[C@H]3C(=O)N[C@H](C(=O)N[C@H](C(=O)O)c4cc(O)cc(O)c4-c4cc3ccc4O)[C@H](O)c3ccc(c(Cl)c3)Oc3cc2cc(c3O[C@@H]2O[C@H](CO)[C@@H](O)[C@H](O)[C@H]2O[C@H]2C[C@](C)(N)[C@H](O)[C@H](C)O2)Oc2ccc(cc2Cl)[C@H]1O` [vancomycin], the MIC range lay in the range of 1 to 4 mg/L in data set [1] (P80 no LHB), 0.5 to 2 mg/L in data set [1] (P80 with LHB), 0.5 to 2 mg/L in data set [1] (no P80 no LHB) and 1 to 4 mg/L in data set [1] (no P80 with LHB). The MIC90 was determined as 2 µg/mL (≈ 1.38 µM) in data set [1] (P80 no LHB), 1 µg/mL (≈ 0.69 µM) in data set [1] (P80 with LHB), 2 µg/mL (≈ 1.38 µM) in data set [1] (no P80 no LHB) and 2 µg/mL (≈ 1.38 µM) in data set [1] (no P80 with LHB). Besides, the MIC in data set [1] (setting [4]) amounted to 1.3 µg/mL (≈ 0.897 µM); in data set [1] (setting [5]), 1 µg/mL (≈ 0.69 µM); in data set [1] (setting [6]), 1.51 µg/mL (≈ 1.04 µM); in data set [1] (setting [7]), 1.35 µg/mL (≈ 0.932 µM). Further, the “Time C. difficile remained as spores before recurrent germination, proliferation and cytotoxin production” value stood at 12 days in data set [2] (after cessation of instillation, vessel 2) and 13 days in data set [2] (after cessation of instillation, vessel 3). Besides, in data set [2] (during instillation, period E), the “Effect on C. difficile spore counts” value is recorded as “unaffected”. In data set [2] (period E), the “Decline of cytotoxin titres during instillation” value stood at 3 RU. In data set [2] (period F), the “C. difficile total counts by the end of the experiment” value is about 6 login cfu/mL. Moreover, the “Cytotoxin titres by the end of the experiment” value in data set [2] (period F) amounted to 5 RU. In data set [2] (period F), the “Recrudescence of C. difficile spore germination, proliferation and cytotoxin production” value is “Recrudescence”. Besides, in data set [3], the “Decline in Bacteroides populations” value is about 6 log10 cfu/mL. Besides, the “Decline in enterococcal populations” value in data set [3] is about 1 log10 cfu/mL. Besides, the “Bifidobacteria lower than steady-state (period A) after cessation of instillation” value in data set [3] (period F) is about 2 log10 cfu/mL.
